Experimental data from US5635510A, “Substituted pyrrolidin-3-yl-alkyl-piperidines” (Merrell Pharmaceuticals Inc., priority 1994, dated 1997).
Counter-ions that a name gives are not always drawn.

Experiments:
NK1 receptor [1] = molecular target: T1, NK1 receptor (Cavia porcellus, UniProt P30547); test: Antagonism of SP-induced plasma protein extravasation in guinea pig trachea; format: in vivo; details: guinea pig, iv; i.v. 2 min prior to SP; mean (95% confidence limits); at least 3 doses, at least 4 animals per dose; read-out: ED50 for inhibition of SP-induced plasma protein extravasation
T1 construct: evaluated in guinea pig lungs; tissue Keystone Biologicals, Cleveland, OH; host or cells: guinea pig lung
Description: SP-induced protein leakage through postcapillary venules was assessed by measuring Evans Blue dye accumulation in guinea pig trachea. Animals were anesthetized with pentobarbital then injected with Evans Blue dye (20 mg/kg, i.v., prepared in 0.9% NaCl solution). One minute after dye administration, the antagonist was administered (i.v.) followed by SP (0.3 nmole/kg, i.v.) and, after 5 min, excess dye removed from the circulation by transcardiac perfusion with 50 ml 0.9% NaCl solution. The trachea and primary bronchi were removed, blotted dry and weighed. Dye quantitation was performed spectrophotometrically ([…]) after extracting tissues in formamide for 24 hr at 50° C.. Values were subtracted from background (dye only, no agonist). ED50 (dose of compound which inhibits SP-induced plasma protein extravasation by 50%) was calculated from linear regression analysis.

NK1 and NK2 receptors = test: Modulation of respiratory effects produced by capsaicin aerosol in conscious guinea pigs; format: in vivo, guinea pig
Description: (§1) In vivo experiments were performed using male Duncan Hartley guinea pigs (250-350g). Changes in conscious breathing patterns were monitored in four animals simultaneously using modified whole body plethysmography consisting of four small plexiglass boxes each connected to a reference box via Validyne DP 45-16 differential pressure transducers. The 4 boxes were equipped with an air supply line (also used for aerosol delivery) and an exhaust air line. Supply and exhaust lines were of the same length and narrow bore and arose from a common supply chamber and vented to a common exhaust chamber. This system was used to ensure that fluctuations in supply air and atmospheric pressure would remain in phase and be eliminated from the net signal by the differential pressure transducers. The analog pressure signals were digitalized via a Data Translation DT2821 A to D board. Data were collected at a rate of 100 samples/second/animal. Each cycle of pressure change was analyzed using the following parameters: rising and falling slope determined between minimum and maximum pressures, the ratio of rising over falling slope, and the magnitude of the change between initial trough pressure and peak cycle pressure. Using these values (and observing the animals) the pressure cycles were characterized into normal breaths, forced exhalations (apparent by abdominal heaving), significant respiratory events (SREs; usually coughs, less often sneezes or gasps which were characterized by transient, extremely large pressure increases which were distinguishable from noise) and movement/noise with a PCAT 286 running a System V UNIX operating system. Dyspnea was defined as a significant, sustained increase in plethysmograph pressure which was associated with an observable shift to labored breathing in the animal.
(§2) During the course of a typical experiment in which airway responsiveness to various bronchoconstricting agents was examined, aerosols were delivered for 19 min (0.33 ml/min) using a DeVilbiss Ultraneb 99 ultrasonic nebulizer and animals monitored during this time. Prior to nebulization, 1 min of resting breathing was collected to establish a baseline pressure. […] The vehicle for nebulization of all bronchoconstrictive agents was phosphate buffered saline (pH 7.4) which elicited no respiratory effects itself. Putative tachykinin antagonists were administered either (i.v.) 20 min prior to onset of aerosol exposure or orally 1 hour prior to onset (to guinea pigs after an overnight fast).
Capsaicin aerosol is known to promote release of the tachykinins SP and NKA from sensory nerves in the airways of guinea pigs which may then act upon NK1 and NK2 receptors, respectively to elicit respiratory effects.

NK1 receptor [2] = molecular target: T2, NK1 receptor (Homo sapiens, UniProt P25103); test: Antagonism of NK1 receptor mediated (SP-induced) phosphatidylinositol turnover in UC11 cells; format: cell-based; details: for relative antagonism of NK1 and NK2 receptors (in words): PI turnover, UC11 (NK1) versus SKLKB82#3 (NK2) cells
T2 construct: antagonizes both NK1 (on UC11 cells); endogenous in cells; host or cells: UC11 cells
Description: (§3) Tachykinin-mediated inositol phosphate accumulation was measured in UC11 or SKLKB82#3 cells in the presence and absence of NK1 or NK2 receptor antagonists, respectively. Tissues were incubated in Krebs-Henseleit buffer at 37° C. with 95% O2 -5% CO2 gassing. Tissues were then incubated with fresh buffer containing 100 μCi of myo-[2-3H(N)] inositol at 37° C. for 60 min with gentle gassing. After washing twice in 5 ml room temperature buffer containing 10 mM LiCl, tissues were incubated for 30 min at room temperature with a buffer change at 15 min. Buffer was removed and Krebs-Henseleit buffer (containing 40 μg/ml bacitracin, 4 μg/ml each of leupeptin and chymostatin, 0.1% bovine serum albumin and 10 mM each of thiorphan and LiCl) added. After 15 min, SP was added to UC11 cells or NKA to SKLKB82#3 cells at various concentrations to start the reaction. After incubation for 60 min at room temperature the reaction was terminated by addition of 930 μl chloroform: methanol (1:2 by volume) to each tube, followed by 310 μl chloroform and 310 μl doubly distilled water. Samples were vortexed, centrifuged, and 0.9 ml of the aqueous (top) phase removed and added to 2 ml ddH2 O. The mixture was vortexed and loaded onto a 50% Bio-Rad AG 1-X8 (formate form, 100-200 mesh) exchange column (Bio-Rad Laboratories, Hercules, Calif.). The columns were washed, in order, with: 1) 10 ml doubly distilled water, 2) 5 ml of 5 mM disodium tetraborate/60 mM sodium formate, and 3) 5 ml of 1M ammonium formate/0.1M formic acid. The third elution was collected and 1 ml counted in 7 ml scintillation fluid. A 50 μl aliquot of the organic (bottom) phase was removed, dried in a scintillation vial and counted in 7 ml scintillation fluid.
(§4) The ratio of DPM in the aqueous phase aliquot (total inositol phosphates) to the DPM in the 50 μl organic phase aliquot (total [^3 H]inositol incorporated) was calculated for each sample. Data are expressed as a percent of agonist-induced accumulation of [^3 H]-inositol phosphates over basal levels. The ratios in the presence of test compound and/or standards were compared to the ratios for control samples (i.e. no stimulating agonist). Dose-response graphs were constructed and the abilities of the test compounds to inhibit tachykinin-induced phosphatidyinositol turnover determined with the aid of a computer program. […] Data is expressed as percent stimulation of total inositol phosphate accumulation over basal levels and normalized to the maximum response produced by SP. […] Schild analysis is performed using dose response curves (such as those presented in FIGS. 1a and 1b) to obtain a value indicative of the strength of a competitive antagonist and is expressed as the pA2, which is the negative logarithm of the molar concentration of antagonist which reduces the effect of a dose of agonist to one-half of that expected at the dose of agonist.

NK2 receptor [3] = molecular target: T3, NK2 receptor (Bos taurus, UniProt P05363); test: Antagonism of NK2 receptor mediated (NKA-induced) phosphatidylinositol turnover in SKLKB82#3 cells; format: cell-based; details: SKLKB82#3 cells, NKA; Schild slope, mean (95% confidence limits)
T3 construct: expressed in transfected cells; host or cells: SKLKB82#3 cells
T3 sequence (P05363 1-384): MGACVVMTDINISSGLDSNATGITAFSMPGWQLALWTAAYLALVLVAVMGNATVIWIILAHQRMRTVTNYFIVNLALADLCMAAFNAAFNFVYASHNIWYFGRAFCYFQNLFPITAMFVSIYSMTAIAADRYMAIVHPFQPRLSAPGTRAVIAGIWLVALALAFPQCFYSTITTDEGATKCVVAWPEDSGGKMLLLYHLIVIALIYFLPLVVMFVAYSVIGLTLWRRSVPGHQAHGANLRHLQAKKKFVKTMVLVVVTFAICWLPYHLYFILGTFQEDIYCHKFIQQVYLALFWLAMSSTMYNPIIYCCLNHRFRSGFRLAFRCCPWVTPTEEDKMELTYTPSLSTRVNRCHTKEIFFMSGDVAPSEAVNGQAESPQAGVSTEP
Description: as §3
as §4, with “The ratios in the presence of test compound and/or standards were compared to the ratios for control samples (i.e. no stimulating agonist).” left out

NK2 receptor [4] = test: Antagonism of NKA-induced respiratory effects in conscious guinea pigs; format: in vivo, guinea pig; details: for dyspnea incidence: i.v. 20 min prior to NKA aerosol (0.05%)
Description: as §1, §2

T2 sequence (P25103 whole entry): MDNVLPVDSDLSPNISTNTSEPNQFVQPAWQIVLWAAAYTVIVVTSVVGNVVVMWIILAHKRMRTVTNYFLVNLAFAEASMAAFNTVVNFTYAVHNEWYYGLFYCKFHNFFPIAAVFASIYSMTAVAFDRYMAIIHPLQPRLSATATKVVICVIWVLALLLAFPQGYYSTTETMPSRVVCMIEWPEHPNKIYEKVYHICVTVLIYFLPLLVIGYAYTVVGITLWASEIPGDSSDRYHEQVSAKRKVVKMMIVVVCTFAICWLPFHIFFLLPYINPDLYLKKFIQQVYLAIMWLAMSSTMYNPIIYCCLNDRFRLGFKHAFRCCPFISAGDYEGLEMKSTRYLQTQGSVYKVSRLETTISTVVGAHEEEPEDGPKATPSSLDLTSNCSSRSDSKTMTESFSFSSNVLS
T1 sequence (P30547 whole entry): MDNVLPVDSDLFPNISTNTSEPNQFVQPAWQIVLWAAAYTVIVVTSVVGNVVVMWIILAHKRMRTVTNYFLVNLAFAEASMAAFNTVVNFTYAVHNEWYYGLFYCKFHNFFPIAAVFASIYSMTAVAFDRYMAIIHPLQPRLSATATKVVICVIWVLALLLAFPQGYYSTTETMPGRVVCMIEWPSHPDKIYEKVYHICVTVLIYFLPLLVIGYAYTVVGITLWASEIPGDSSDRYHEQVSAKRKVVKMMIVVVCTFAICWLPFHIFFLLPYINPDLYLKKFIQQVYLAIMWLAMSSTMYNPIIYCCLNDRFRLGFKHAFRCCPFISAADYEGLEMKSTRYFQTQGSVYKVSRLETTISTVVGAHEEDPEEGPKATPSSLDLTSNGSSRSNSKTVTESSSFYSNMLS

Row | SMILES | ED50 (NK1 receptor [1]) | dyspnea incidence (NK1 and NK2 receptors; 10 mg/kg, i.v. 20 min prior to capsaicin aerosol (0.001%)) | dyspnea incidence (NK1 and NK2 receptors; 25 mg/kg, oral gavage 1 hr prior to capsaicin aerosol (0.001%)) | dyspnea incidence (NK1 and NK2 receptors; 50 mg/kg, oral gavage 1 hr prior to capsaicin aerosol (0.001%)) | dyspnea incidence (NK1 and NK2 receptors; 100 mg/kg, oral gavage 1 hr prior to capsaicin aerosol (0.001%)) | effect on capsaicin-induced respiratory effects (in words) (NK1 and NK2 receptors; intravenous) | effect on capsaicin-induced respiratory effects (in words) (NK1 and NK2 receptors; oral) | relative antagonism of NK1 and NK2 receptors (in words) (NK1 receptor [2]) | NK-1 receptor slope (NK1 receptor [2]; UC11 cells, SP, Schild slope, mean (95% confidence limits)) | NK-2 receptor slope (NK2 receptor [3]) | dyspnea incidence (NK2 receptor [4]; 5 mg/kg) | dyspnea incidence (NK2 receptor [4]; 10 mg/kg) | effect on NKA-induced respiratory effects (in words) (NK2 receptor [4]; NKA aerosol, dose dependent)
1 | COc1cc(C(=O)N2CCC(CCN3CCC(C(N)=O)(c4ccccc4)CC3)(c3ccc(Cl)c(Cl)c3)C2)cc(OC)c1OC (racemic) [Example 3A, 1-[2-[3-(3,4-dichloro-phenyl)-1-(3,4,5-trimethoxy-benzoyl)-pyrrolidin-3-yl]-ethyl]-4-phenyl-piperidine-4-carboxylic acid amide hydrochloride] | 0.17 mg/kg | 89% | 80% | 70% | 50% | attenuate capsaicin-induced respiratory effects | antagonize the effects of capsaicin aerosol when administered orally | antagonized both NK1 and NK2 receptors by nearly equivalent amounts | 0.90 | 0.73 | – | – | –
2 | COc1cccc(OC)c1C(=O)N1CCC(CCN2CCC(C(N)=O)(c3ccccc3)CC2)(c2ccc(Cl)c(Cl)c2)C1 (stereo not drawn) [Example 5, 1-[2-[3-(3,4-dichloro-phenyl)-1-(2,6-dimethoxy-benzoyl)-pyrrolidin-3-yl]-ethyl]-4-phenyl-piperidine-4-carboxylic acid amide] | – | – | – | – | – | – | antagonize the effects of capsaicin aerosol when administered orally | – | – | – | – | – | –
3 | COc1cccc(OC)c1C(=O)N1CCC(CCN2CCC(C(N)=O)(c3ccccc3)CC2)(c2ccc(Cl)c(Cl)c2)C1 (stereo not drawn) [Example 5A, 1-[2-[3-(3,4-dichloro-phenyl)-1-[2,6-dimethoxy-benzoyl)-pyrrolidin-3-yl]-ethyl]-4-phenylpiperidine-4-carboxylic acid amide hydrochloride] | – | – | – | – | – | – | – | antagonized both NK1 and NK2 receptors by nearly equivalent amounts | – | – | 60% | 54% | reduced the effects of NKA aerosol
